Results published in paper PMC5617480 (Oncotarget, 2017).

Tested on: telomeres/telomerase-related genes
Assay: RT-qPCR array (Telomeres & Telomerase PCR Array)
Format: cell-based, human
Settings: BEL-7404 cells, 10 μM, 24 h
Experimental: To determine the mechanism(s), we further explored the effect of complex 6 on the expression of telomeres/telomerase-related genes (such as TRF1, hTERT, TRF2, c-myc, and 53BP1) in the BEL-7404 model. Firstly, RT-qPCR array was used to determine mRNA levels of telomeres/telomerase-related gene expressions in BEL-7404 cells when the cells were treated with complex 6. […] Secondly, these telomerase-related genes were determined by western blot. […]
In addition, RNA
30.0 min at room temperature in the dark. Finally, the extraction, RT-PCR, and the selective binding to G4s by BEL-7404 cell cycle was determined with FACS Calibur complexes 4–6 was according to the our previous reported flow cytometer (BD) and analyzed using Cell Quest. […]
ME). Gene expression by a panel of genes for RT-Determination of caspase-3/9 activity by flow qPCR array cytometric analysis Differential expression of telomeres/telomerase-related genes was analyzed using the Telomeres &
Colorimetric analysis of caspase-9 and caspase-3 Telomerase PCR Array (RT2 Profiler™ PCR Array Human activation in BEL-7404 cells exposed to 10 μM of Telomeres & Telomerase, PAHS-010Z, SABioscience, complexes 4–6 for 24.0 h were carried out using the USA) obtained from Kangchen Bio-tech, Shanghai, China.
CaspGLOW™ Fluorescein Active Caspase-9/Caspase-3 RNA was extracted according to standard protocols and Staining Kit. The BEL-7404 cells treated with complexes converted to first strand cDNA using the RT2 First Strand 4–6 and the controlled BEL-7404 cells were harvested Kit. The template was added to an instrument specific, from RPMI 1640 medium with 10% FBS, in a density of ready-to-use RT2 SYBR Green qPCR Master Mix. The 1.0 × 10^6 cells per milliliter. These cells were washed with resulting mixture was added to the wells (25.0 μL/well) of PBS and centrifuged for 3 times, and were then mixed the PCR Array plate containing the telomere maintenance, with 500 μL culture. 1.0 μL of FITC-LEHD-FMK or/telomere-associated complexes, telomere regulation and FITC-DEVD-FMK were consequently added and other genes associated with telomeres gene-specific primer incubated for 2.0 h at 37 °C with 5% CO2. The BEL- sets (25 μL for 96-well plates) and PCR was performed.
7404 cells were then determined with a FACS AriaII flow The threshold cycle (Ct) values for all the genes on each cytometer equipped with a 488 nm argon laser. Results PCR Array were calculated using the instrument specific were represented as the percent change on the activity software and the fold-changes in gene expression for pair-comparing with the control group. wise comparison were calculated using the 2-ΔCt method.
Western blot assay TRAP Assay (TRAP-silver staining assay)
The BEL-7404 Cells were treated with the same as Each telomerase extract was prepared from BEL-the above for 24.0 h with complexes 4–6 (10 μM), and 7404 cells. A modified version of the TRAP assay was total proteins were extracted by lysis buffer RIPA. Then used. The PCR was performed in a final […] use BCA protein assay to measure concentrations of each reaction volume composed of reaction mix ([…]) sample. After electrophoresis on 10% PAGE-SDS gel containing pH 8.0 Tris-HCl (20.0 mM), deoxynucleotide and blotting, anti-mutp53, 53BP1, TRF1, TRF2, hTERT, triphosphates ([…]), BSA (20 mg/mL), primer

## cis-[PtCl2(S-(–)-FOA)] [complex 6]
  Fold Change, ABL1: 0.80
  Fold Change, ACD: 1.16
  Fold Change, ACTB: 0.76
  Fold Change, AKT1: 0.77
  Fold Change, ATM: 1.08
  Fold Change, ATP5C1: 1.19
  Fold Change, B2M: 1.15
  Fold Change, BCL2: 0.76
  Fold Change, BLM: 1.21
  Fold Change, CDK2: 0.80
  Fold Change, CHEK1: 1.13
  Fold Change, CHEK2: 1.23
  Fold Change, DCLRE1B: 0.81
  Fold Change, DCLRE1C: 1.20
  Fold Change, DKC1: 1.14
  Fold Change, EGF: 1.11
  Fold Change, EME1: 1.26
  Fold Change, ERCC1: 1.00
  Fold Change, ERCC4: 1.22
  Fold Change, GAPDH: 0.97
  Fold Change, GAR1: 0.95
  Fold Change, HAT1: 1.13
  Fold Change, HNRNPA2B1: 1.06
  Fold Change, HNRNPD: 0.95
  Fold Change, HPRT1: 1.14
  Fold Change, HSP90AA1: 1.35
  Fold Change, HSPA1L: 1.65
  Fold Change, IGF1: 0.02
  Fold Change, KRAS: 0.88
  Fold Change, KRIT1: 1.12
  Fold Change, MEN1: 1.14
  Fold Change, MRE11A: 1.41
  Fold Change, MSH2: 0.90
  Fold Change, MSH3: 0.66
  Fold Change, MUS81: 1.55
  Fold Change, MYC: 0.75
  Fold Change, NBN: 0.79
  Fold Change, NCL: 1.04
  Fold Change, NHP2: 1.46
  Fold Change, NOP10: 0.82
  Fold Change, OBFC1: 1.32
  Fold Change, PARP1: 1.02
  Fold Change, PAX8: 9.91
  Fold Change, PIF1: 0.84
  Fold Change, PINX1: 1.13
  Fold Change, PLK1: 0.72
  Fold Change, POT1: 0.87
  Fold Change, PPARG: 1.08
  Fold Change, PPP2R1A: 0.88
  Fold Change, PPP2R1B: 0.68
  Fold Change, PRKCA: 1.12
  Fold Change, PRKCB: 0.48
  Fold Change, PRKDC: 0.83
  Fold Change, PTGES3: 1.07
  Fold Change, PURA: 1.07
  Fold Change, RAD17: 1.11
  Fold Change, RAD50: 1.44
  Fold Change, RAP1A: 0.90
  Fold Change, RAPGEF1: 0.97
  Fold Change, RASSF1: 1.26
  Fold Change, RB1: 0.59
  Fold Change, RFC1: 1.33
  Fold Change, RIF1: 1.67
  Fold Change, RPLP0: 1.05
  Fold Change, RTEL1: 0.39
  Fold Change, SART1: 1.50
  Fold Change, SIRT2: 0.84
  Fold Change, SIRT6: 1.89
  Fold Change, SLX4: 0.87
  Fold Change, SMAD3: 0.65
  Fold Change, SMG6: 1.05
  Fold Change, SP1: 0.70
  Fold Change, SSB: 1.14
  Fold Change, SUN1: 1.04
  Fold Change, TEP1: 1.73
  Fold Change, TERF1: 1.39
  Fold Change, TERF2: 0.99
  Fold Change, TERF2IP: 1.47
  Fold Change, TERT: 0.89
  Fold Change, TGFB1: 1.46
  Fold Change, TINF2: 1.14
  Fold Change, TNKS: 1.12
  Fold Change, TNKS2: 1.02
  Fold Change, TP53: 1.45
  Fold Change, TP53BP1: 1.18
  Fold Change, TPP1: 1.07
  Fold Change, WRAP53: 0.94
  Fold Change, XRCC5: 0.76
  Fold Change, XRCC6: 1.15
  Fold Up-or Down-Regulation, ABL1: -1.25
  Fold Up-or Down-Regulation, ACD: 1.16
  Fold Up-or Down-Regulation, ACTB: -1.32
  Fold Up-or Down-Regulation, AKT1: -1.30
  Fold Up-or Down-Regulation, ATM: 1.08
  Fold Up-or Down-Regulation, ATP5C1: 1.19
  Fold Up-or Down-Regulation, B2M: 1.15
  Fold Up-or Down-Regulation, BCL2: -1.32
  Fold Up-or Down-Regulation, BLM: 1.21
  Fold Up-or Down-Regulation, CDK2: -1.24
  Fold Up-or Down-Regulation, CHEK1: 1.13
  Fold Up-or Down-Regulation, CHEK2: 1.23
  Fold Up-or Down-Regulation, DCLRE1B: -1.24
  Fold Up-or Down-Regulation, DCLRE1C: 1.20
  Fold Up-or Down-Regulation, DKC1: 1.14
  Fold Up-or Down-Regulation, EGF: 1.11
  Fold Up-or Down-Regulation, EME1: 1.26
  Fold Up-or Down-Regulation, ERCC1: -1.00
  Fold Up-or Down-Regulation, ERCC4: 1.22
  Fold Up-or Down-Regulation, GAPDH: -1.04
  Fold Up-or Down-Regulation, GAR1: -1.05
  Fold Up-or Down-Regulation, HAT1: 1.13
  Fold Up-or Down-Regulation, HNRNPA2B1: 1.06
  Fold Up-or Down-Regulation, HNRNPD: -1.06
  Fold Up-or Down-Regulation, HPRT1: 1.14
  Fold Up-or Down-Regulation, HSP90AA1: 1.35
  Fold Up-or Down-Regulation, HSPA1L: 1.65
  Fold Up-or Down-Regulation, IGF1: -57.88
  Fold Up-or Down-Regulation, KRAS: -1.13
  Fold Up-or Down-Regulation, KRIT1: 1.12
  Fold Up-or Down-Regulation, MEN1: 1.14
  Fold Up-or Down-Regulation, MRE11A: 1.41
  Fold Up-or Down-Regulation, MSH2: -1.11
  Fold Up-or Down-Regulation, MSH3: -1.51
  Fold Up-or Down-Regulation, MUS81: 1.55
  Fold Up-or Down-Regulation, MYC: -1.33
  Fold Up-or Down-Regulation, NBN: -1.27
  Fold Up-or Down-Regulation, NCL: 1.04
  Fold Up-or Down-Regulation, NHP2: 1.46
  Fold Up-or Down-Regulation, NOP10: -1.22
  Fold Up-or Down-Regulation, OBFC1: 1.32
  Fold Up-or Down-Regulation, PARP1: 1.02
  Fold Up-or Down-Regulation, PAX8: 9.91
  Fold Up-or Down-Regulation, PIF1: -1.19
  Fold Up-or Down-Regulation, PINX1: 1.13
  Fold Up-or Down-Regulation, PLK1: -1.39
  Fold Up-or Down-Regulation, POT1: -1.14
  Fold Up-or Down-Regulation, PPARG: 1.08
  Fold Up-or Down-Regulation, PPP2R1A: -1.13
  Fold Up-or Down-Regulation, PPP2R1B: -1.46
  Fold Up-or Down-Regulation, PRKCA: 1.12
  Fold Up-or Down-Regulation, PRKCB: -2.06
  Fold Up-or Down-Regulation, PRKDC: -1.20
  Fold Up-or Down-Regulation, PTGES3: 1.07
  Fold Up-or Down-Regulation, PURA: 1.07
  Fold Up-or Down-Regulation, RAD17: 1.11
  Fold Up-or Down-Regulation, RAD50: 1.44
  Fold Up-or Down-Regulation, RAP1A: -1.11
  Fold Up-or Down-Regulation, RAPGEF1: -1.03
  Fold Up-or Down-Regulation, RASSF1: 1.26
  Fold Up-or Down-Regulation, RB1: -1.70
  Fold Up-or Down-Regulation, RFC1: 1.33
  Fold Up-or Down-Regulation, RIF1: 1.67
  Fold Up-or Down-Regulation, RPLP0: 1.05
  Fold Up-or Down-Regulation, RTEL1: -2.58
  Fold Up-or Down-Regulation, SART1: 1.50
  Fold Up-or Down-Regulation, SIRT2: -1.19
  Fold Up-or Down-Regulation, SIRT6: 1.89
  Fold Up-or Down-Regulation, SLX4: -1.15
  Fold Up-or Down-Regulation, SMAD3: -1.55
  Fold Up-or Down-Regulation, SMG6: 1.05
  Fold Up-or Down-Regulation, SP1: -1.43
  Fold Up-or Down-Regulation, SSB: 1.14
  Fold Up-or Down-Regulation, SUN1: 1.04
  Fold Up-or Down-Regulation, TEP1: 1.73
  Fold Up-or Down-Regulation, TERF1: 1.39
  Fold Up-or Down-Regulation, TERF2: -1.01
  Fold Up-or Down-Regulation, TERF2IP: 1.47
  Fold Up-or Down-Regulation, TERT: -1.12
  Fold Up-or Down-Regulation, TGFB1: 1.46
  Fold Up-or Down-Regulation, TINF2: 1.14
  Fold Up-or Down-Regulation, TNKS: 1.12
  Fold Up-or Down-Regulation, TNKS2: 1.02
  Fold Up-or Down-Regulation, TP53: 1.45
  Fold Up-or Down-Regulation, TP53BP1: 1.18
  Fold Up-or Down-Regulation, TPP1: 1.07
  Fold Up-or Down-Regulation, WRAP53: -1.06
  Fold Up-or Down-Regulation, XRCC5: -1.32
  Fold Up-or Down-Regulation, XRCC6: 1.15
